For one experiment, the target named is T1, rCX3CR1 (Rattus norvegicus, UniProt P35411).
T1 construct: expressed in transfected cells; stably expresses a Ca2+ sensitive photo-protein
T1 sequence (P35411 1-354): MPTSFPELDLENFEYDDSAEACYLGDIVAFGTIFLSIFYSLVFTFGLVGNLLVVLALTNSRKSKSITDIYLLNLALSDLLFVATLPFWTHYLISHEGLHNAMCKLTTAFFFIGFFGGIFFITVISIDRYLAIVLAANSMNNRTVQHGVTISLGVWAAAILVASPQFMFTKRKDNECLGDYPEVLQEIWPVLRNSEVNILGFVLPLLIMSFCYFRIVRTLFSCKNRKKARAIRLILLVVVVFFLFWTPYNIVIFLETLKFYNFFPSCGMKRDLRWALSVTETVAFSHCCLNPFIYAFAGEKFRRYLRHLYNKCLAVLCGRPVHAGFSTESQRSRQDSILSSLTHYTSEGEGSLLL
Kind of experiment: Ga16 assay, CX3CR1 agonism, Ca2+ sensitive photo-protein readout (FLIPRTETRA). It counts as cell-based. To be noted: rat CX3CR1 cell line. A digest of the protocol:
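Cells expressing human, mouse or rat CX3CR1 with a stably expressed Ca2+-sensitive photoprotein were loaded with 10 μM coelenterazine in tyrode buffer pH 7.4 for 3 h at room temperature. Agonist-mode luminescence kinetics were recorded for 90 s after compound injection on FLIPRTETRA. Dose-response runs were done in quadruplicate, with fractalkine as the reference agonist.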

Another experiment has as its target T2, hCX3CR1 (Homo sapiens, UniProt P49238).
T2 sequence (P49238 1-355): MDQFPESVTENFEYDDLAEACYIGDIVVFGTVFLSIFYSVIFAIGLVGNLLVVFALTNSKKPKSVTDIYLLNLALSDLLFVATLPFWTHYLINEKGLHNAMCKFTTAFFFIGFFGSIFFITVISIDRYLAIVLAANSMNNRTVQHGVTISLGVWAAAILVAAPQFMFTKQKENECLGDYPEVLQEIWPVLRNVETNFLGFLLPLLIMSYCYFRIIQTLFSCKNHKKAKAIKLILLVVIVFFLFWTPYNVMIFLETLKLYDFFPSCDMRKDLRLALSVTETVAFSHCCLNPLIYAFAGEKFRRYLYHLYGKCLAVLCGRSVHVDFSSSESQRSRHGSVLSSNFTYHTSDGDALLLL
Kind of experiment: ChAMPion assay (CHO ChAMPion/CX3CR1 K1.6, cAMP/CNG channel, photoprotein luminescence). In kind it is cell-based. Also on record: expressed in transfected cells; stably expresses a Ca2+ sensitive photo-protein. As to conditions: ChAMPion assay, CHO ChAMPion/CX3CR1 K1.6, Forskolin 3 μM; read-out: hCX3CR1 agonism EC50.

Each structure is given as a SMILES string. pEC50: −log10 of the molar value.

Turning to `CN(C)CC1(CNC(=O)c2cc3c(s2)CCCCCC3)CCC1` [Example 23, N-[[1-[(dimethylamino)methyl]cyclobutyl]methyl]-4,5,6,7,8,9-hexahydrocycloocta[b]thiophene-2-carboxamide], the pEC50 – broadly, the negative decadic logarithm of the EC50, by convention in mol/L – was 5.02 on rCX3CR1 and 5.85 at hCX3CR1.
Taken in the same sequence, the figures for `O=C(NCC1(CN2CCC(O)C2)CCCC1)c1cc2c(s1)CCCCCC2` (racemic) [Example 25, N-[[1-[(3-hydroxypyrrolidin-1-yl)methyl]cyclopentyl]methyl]-4,5,6,7,8,9-hexahydrocycloocta[b]thiophene-2-carboxamide] were 4.64 and 6.15.
For `O=C(NCC1(CN2CCCCC2)CCCC1)c1cc2c(s1)CCCCCC2` [Example 15, N-[[1-(piperidin-1-ylmethyl)cyclopentyl]methyl]-4,5,6,7,8,9-hexahydrocycloocta[b]thiophene-2-carboxamide] the same measures were 4.70 and 5.57.
`O=C(NCC1(CN2CCCC2)CC(O)C1)c1cc2c(s1)CCCCCC2` (stereo not shown) [Example 32, N-[[3-hydroxy-1-(pyrrolidin-1-ylmethyl)cyclobutyl]methyl]-4,5,6,7,8,9-hexahydrocycloocta[b]thiophene-2-carboxamide]: the pEC50 at rCX3CR1 is 4.94; at hCX3CR1, 6.19.
Consider `CN(C)CC(C)(C)CNC(=O)c1cc2c(s1)CCCCCC2` [Example 70, N-[3-(dimethylamino)-2,2-dimethylpropyl]-4,5,6,7,8,9-hexahydrocycloocta[b]thiophene-2-carboxamide], for which the pEC50 at rCX3CR1 is 4.58; at hCX3CR1 it was 5.51.
For `O=C(NCC1(CN2CCC(O)CC2)CCCC1)c1cc2c(s1)CCCCCC2` [Example 28, N-[[1-[(4-hydroxypiperidin-1-yl)methyl]cyclopentyl]methyl]-4,5,6,7,8,9-hexahydrocycloocta[b]thiophene-2-carboxamide] the same measures were 5.03 and 6.10.
Taken in the same sequence, the figures for `CN(CCO)CC1(CNC(=O)c2cc3c(s2)CCCCCC3)CCC1` [Example 30, N-[[1-[[2-hydroxyethyl(methyl)amino]methyl]cyclobutyl]methyl]-4,5,6,7,8,9-hexahydrocycloocta[b]thiophene-2-carboxamide] were 4.87 and 6.22.
On to `O=C(NCC1(CN2CCCC2)CCC1)c1cc2c(s1)CCCCCC2` [Example 21, N-[[1-(pyrrolidin-1-ylmethyl)cyclobutyl]methyl]-4,5,6,7,8,9-hexahydrocycloocta[b]thiophene-2-carboxamide], for which the pEC50 on rCX3CR1 is 5.24; at hCX3CR1, 5.36.
Taken in the same sequence, the figures for `O=C(NCC1(CN2CCCC(O)C2)CCCC1)c1cc2c(s1)CCCCCC2` (stereo not shown) [Example 27, N-[[1-[(3-hydroxypiperidin-1-yl)methyl]cyclopentyl]methyl]-4,5,6,7,8,9-hexahydrocycloocta[b]thiophene-2-carboxamide] were 4.97 and 4.88.
In the case of `O=C(NCC1(CN2CCCC2)CCCC1)c1cc2c(s1)CCCCCC2` [Example 5, N-[[1-(pyrrolidin-1-ylmethyl)cyclopentyl]methyl]-4,5,6,7,8,9-hexahydrocycloocta[b]thiophene-2-carboxamide], the values for the pEC50 at rCX3CR1 and on hCX3CR1 were 4.99 and 5.74, respectively.
For `CC(C)(CNC(=O)c1cc2c(s1)CCCCCC2)CN1CCCCC1` [Example 13, N-(2,2-dimethyl-3-piperidin-1-ylpropyl)-4,5,6,7,8,9-hexahydrocycloocta[b]thiophene-2-carboxamide] the same measures were 4.77 and 5.66.
Taken in the same sequence, the figures for `CC(C)(CNC(=O)c1cc2c(s1)CCCCCC2)CN1CCCC1` [Example 1, N-(2,2-dimethyl-3-pyrrolidin-1-ylpropyl)-4,5,6,7,8,9-hexahydrocycloocta[b]thiophene-2-carboxamide] were 4.86 and 5.68.
As for `CN(C)CC1(CNC(=O)c2cc3c(s2)CCCCCC3)CC(O)C1` (stereo not shown) [Example 31, N-[[1-[(dimethylamino)methyl]-3-hydroxycyclobutyl]methyl]-4,5,6,7,8,9-hexahydrocycloocta[b]thiophene-2-carboxamide], the results for the pEC50 at rCX3CR1 and on hCX3CR1 were 4.83 and 6.05, respectively.
For `CN(C)CC1(CNC(=O)c2cc3c(s2)CCCCCC3)CCCC1` [Example 2, N-[[1-[(dimethylamino)methyl]cyclopentyl]methyl]-4,5,6,7,8,9-hexahydrocycloocta[b]thiophene-2-carboxamide] the same measures were 5.07 and 5.89.

For the origin of these results see patent publication US12258337B2, “Bicyclic CX3CR1 receptor agonists” (Board of Regents, The University of Texas System, priority 2019, dated 2025).
